According to patent US10640545B2 (THE GOVERNORS OF THE UNIVERSITY OF ALBERTA, priority 2017, dated 2020):

Target: Recombinant Human Neprilysin (Homo sapiens, UniProt P08473)
Test: Neprilysin qualitative cleavage assay (MALDI-TOF)
Settings: rhNEP 2 ng/μL, 37° C., first degradation products by MALDI-TOF
Protocol: Native apelin-17 (2) and apelin peptides 5, 54, 56, 57, 58 and 59 were dissolved in Milli-Q water (1 mM). Recombinant Human Neprilysin (rhNEP, Sino Biological) was reconstituted in Tris buffer (100 mM Tris, 100 mM NaCl, 10 mM ZnCl2, pH 7.5). To initiate the assays, rhNEP was diluted in Tris buffer to a 2 ng/μL final concentration, and pre-incubated at 37° C. for 10 minutes prior to the addition of 5 μL of apelin peptide (1 mM). Aliquots (1 μL) were taken at 1, 2, 4, 6, 12, 24, 36, and 48 hours and analyzed with MALDI-TOF mass spectrometry to qualitatively determine the time point at which degradation products could be observed.

Sequence of Recombinant Human Neprilysin (P08473 whole entry): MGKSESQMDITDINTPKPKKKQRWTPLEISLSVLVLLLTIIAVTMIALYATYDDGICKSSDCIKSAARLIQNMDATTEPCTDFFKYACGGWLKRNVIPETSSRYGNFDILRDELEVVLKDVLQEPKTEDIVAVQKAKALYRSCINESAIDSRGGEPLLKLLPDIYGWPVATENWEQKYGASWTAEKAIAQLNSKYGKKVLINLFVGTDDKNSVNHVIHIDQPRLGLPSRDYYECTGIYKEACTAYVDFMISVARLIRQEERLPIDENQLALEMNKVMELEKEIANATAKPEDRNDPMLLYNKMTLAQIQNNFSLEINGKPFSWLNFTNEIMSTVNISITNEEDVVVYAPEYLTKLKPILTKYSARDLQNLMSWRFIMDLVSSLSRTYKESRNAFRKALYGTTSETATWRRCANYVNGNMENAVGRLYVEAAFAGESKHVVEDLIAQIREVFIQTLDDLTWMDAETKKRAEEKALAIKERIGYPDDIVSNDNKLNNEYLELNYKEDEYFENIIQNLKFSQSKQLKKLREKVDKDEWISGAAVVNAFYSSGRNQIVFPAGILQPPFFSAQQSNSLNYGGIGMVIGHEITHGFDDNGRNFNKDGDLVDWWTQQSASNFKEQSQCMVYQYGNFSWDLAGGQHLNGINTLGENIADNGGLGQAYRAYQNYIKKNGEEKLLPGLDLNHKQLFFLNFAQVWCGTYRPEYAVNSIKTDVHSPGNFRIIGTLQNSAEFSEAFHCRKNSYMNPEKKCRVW

- Degradation Onset Timepoint with NEP: <30 min
SMILES: CSCC[C@H](NC(=O)[C@@H]1CCCN1C(=O)CNC(=O)[C@H](CCCCN)NC(=O)[C@H](Cc1cnc[nH]1)NC(=O)[C@H](CO)NC(=O)[C@H](CC(C)C)NC(=O)[C@H](CCCNC(=N)N)NC(=O)[C@@H]1CCCN1C(=O)[C@H](CCCNC(=N)N)NC(=O)[C@H](CCC(N)=O)NC(=O)[C@H](CCCNC(=N)N)NC(=O)[C@H](CCCNC(=N)N)NC(=O)[C@H](Cc1ccccc1)NC(=O)[C@@H](N)CCCCN)C(=O)N1CCC[C@H]1C(=O)N[C@@H](Cc1ccccc1)C(=O)O [Peptide 2, reference compound]
